System: Monochoria vaginalis
Experiment: Herbicidal efficacy in Indonesia, applied 2 weeks after transplanting (Table 6)
Assay type: in vivo
Description: Methyl 2-[[[[(4-methoxy-6-methyl-1,3,5-triazin-2-yl)amino]carbonyl]amino]sulfonyl]benzoate (Compound 1) and mixtures thereof with other compounds were applied as a spray (using a hand sprayer) to rice (either transplanted or direct seeded) in several rice growing areas in Southeast Asia and in the U.S. Tables 1-28 contain the results of these tests and clearly exemplify the utility of this invention. The details of each application are included in the appropriate table. [drawing 2]

Measured: % CONTROL MV

COC(=O)c1ccccc1S(=O)(=O)NC(=O)Nc1nc(C)nc(OC)n1 [Compound 1, Methyl 2-[[[[(4-methoxy-6-methyl-1,3,5-triazin-2-yl)amino]carbonyl]amino]sulfonyl]benzoate]
90%: 4 GAI/HA, 2 weeks after application
100%: 3 GAI/HA, 2 weeks after application | 3 GAI/HA, 5 weeks after application | 3 GAI/HA, 7 weeks after application | 4 GAI/HA, 5 weeks after application | 4 GAI/HA, 7 weeks after application | 6 GAI/HA, 2 weeks after application | 6 GAI/HA, 5 weeks after application | 6 GAI/HA, 7 weeks after application | 8 GAI/HA, 2 weeks after application | 8 GAI/HA, 5 weeks after application | 8 GAI/HA, 7 weeks after application
